*1 amine or outer side, *2 acyl side, *3 side chain or, on linkers, in order; H or OH if unused. Where a SMILES comes first, the peptide text is derived from it. Bridges are numbered along the chain shown (N, C = ends). Roman numbers before positions name the chains, in order. [ ]: non-standard residue; d: D form. Diglycolyl = O=C(COCC(=O)[*:2])[*:1]; NMeR = CN[C@@H](CCCNC(=N)N)C(=O)O; X1 = O=C(c1ccccc1C[*:2])[*:1]; hCys = N[C@@H](CCS)C(=O)O

The target of one test is T1, α4β1 (Homo sapiens, UniProt P05556+P13612).
T1 construct: purchased R&D Systems 5668-A4
T1 sequence (P13612 34-977 limits assumed): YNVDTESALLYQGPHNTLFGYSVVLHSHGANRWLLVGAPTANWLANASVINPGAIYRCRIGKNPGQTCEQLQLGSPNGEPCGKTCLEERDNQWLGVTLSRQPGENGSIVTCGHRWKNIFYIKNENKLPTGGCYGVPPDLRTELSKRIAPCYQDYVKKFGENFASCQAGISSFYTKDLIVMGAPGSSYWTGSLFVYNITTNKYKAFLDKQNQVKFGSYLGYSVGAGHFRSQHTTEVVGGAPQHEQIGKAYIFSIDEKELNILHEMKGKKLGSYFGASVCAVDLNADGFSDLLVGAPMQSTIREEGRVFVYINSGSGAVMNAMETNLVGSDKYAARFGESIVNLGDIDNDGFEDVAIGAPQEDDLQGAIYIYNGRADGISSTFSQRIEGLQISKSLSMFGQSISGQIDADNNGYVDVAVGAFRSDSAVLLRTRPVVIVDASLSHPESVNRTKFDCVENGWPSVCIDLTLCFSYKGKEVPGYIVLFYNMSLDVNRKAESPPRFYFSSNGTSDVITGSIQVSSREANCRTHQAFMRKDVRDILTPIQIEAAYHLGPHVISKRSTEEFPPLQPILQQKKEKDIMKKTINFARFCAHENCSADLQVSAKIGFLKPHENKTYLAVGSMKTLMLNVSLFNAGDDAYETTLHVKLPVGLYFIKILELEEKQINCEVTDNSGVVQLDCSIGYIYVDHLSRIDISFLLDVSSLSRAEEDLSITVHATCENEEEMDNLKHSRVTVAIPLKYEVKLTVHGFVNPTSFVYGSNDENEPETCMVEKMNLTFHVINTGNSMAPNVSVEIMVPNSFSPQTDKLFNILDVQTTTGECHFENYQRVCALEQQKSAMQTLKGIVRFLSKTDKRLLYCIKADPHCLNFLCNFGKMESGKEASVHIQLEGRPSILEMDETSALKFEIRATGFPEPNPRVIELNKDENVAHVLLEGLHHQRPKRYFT
T1 sequence (P05556 21-728 limits assumed): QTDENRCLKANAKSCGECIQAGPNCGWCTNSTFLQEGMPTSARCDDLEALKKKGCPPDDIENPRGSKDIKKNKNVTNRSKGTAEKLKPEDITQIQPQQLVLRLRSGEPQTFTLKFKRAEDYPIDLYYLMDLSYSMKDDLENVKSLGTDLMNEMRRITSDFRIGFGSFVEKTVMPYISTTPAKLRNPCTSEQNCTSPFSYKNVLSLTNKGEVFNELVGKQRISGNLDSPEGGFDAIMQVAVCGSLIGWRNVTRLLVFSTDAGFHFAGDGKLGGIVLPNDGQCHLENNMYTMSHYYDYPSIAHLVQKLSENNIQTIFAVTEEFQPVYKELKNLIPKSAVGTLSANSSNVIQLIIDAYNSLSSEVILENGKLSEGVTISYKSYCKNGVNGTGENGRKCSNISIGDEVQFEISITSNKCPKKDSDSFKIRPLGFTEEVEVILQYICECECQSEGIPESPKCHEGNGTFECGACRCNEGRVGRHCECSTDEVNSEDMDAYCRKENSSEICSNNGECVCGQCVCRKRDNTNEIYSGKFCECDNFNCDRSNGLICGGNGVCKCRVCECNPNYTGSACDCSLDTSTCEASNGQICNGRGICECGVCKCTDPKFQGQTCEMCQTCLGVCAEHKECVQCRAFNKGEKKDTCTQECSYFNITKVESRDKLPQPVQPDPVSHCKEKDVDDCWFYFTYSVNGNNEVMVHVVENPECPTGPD
As to the kind of experiment: α4β1-VCAM Competition ELISA. It is filed as binding. To be noted: thioether monomer peptides, Table 6; read-out: ELISA A4B1. As for the experimental part: α4β1-VCAM Competition ELISA
A Nunc MaxiSorp plate was coated with rh VCAM-1/CD106 Fc chimera (R&D #862-VC) at 400 ng/well in 50 ul per well in 1×PBS and incubated overnight at 4° C. The solution was removed by shaking and then blocked with 250 ul of 1% BSA in 1×PBS per well. The wells were then incubated at room temperature for 1 hr with shaking. Each well was then washed once with wash buffer (50 mM Tris-HCl pH7.6, 100 mM NaCL, 1 mM MnCl2 or MgCl2, 0.05% Tween-20). 25 ul of serial dilutions of peptides starting at 200 μM in assay buffer (Assay buffer: 50 mM Tris-HCl pH7.6, 100 mM NaCl, 1 mM MnCl2 or MgCl2, 0.05% Tween-20) was added to each well. Additionally, 25 μl of α4β1 (R&D Systems #5668-A4) was added to each well at a fixed concentration of 120 nM. The final peptide and α4β1 concentrations were 100 μM and 60 nM, respectively. The plates were then incubated at 37° C. for 2 hr. The solution was then removed by shaking and each well was washed three times with wash buffer. 50 ul of 9F10 antibody at 4 ug/ml (purified mouse anti-human CD49d, BD Bioscience Cat #555502) was then added to each well, and the plate was incubated at room temperature for Ihr with shaking. The solution was again removed by shaking, and each well was washed three times with wash buffer. 50 μl of peroxidase-conjugated AffiniPure Goat anti-mouse IgG (Jackson immune research cat #115-035-003) diluted in 1:5000 in assay buffer was added to each well. The plate was incubated at room temperature for 30 min with shaking. Each well was then washed 3 times with wash buffer. 100 ul of TMB was then added to each well and closely observe during developing time. The reaction was stepped with 2N H2SO4 and absorbance was read at 450 nm.
For the molecule `CC(C)C[C@@H]1NC(=O)[C@H]([C@@H](C)O)NC(=O)[C@H](CC(=O)O)NC(=O)[C@H](CO)NC(=O)[C@H](CCCNC(=N)N)N(C)C(=O)c2ccccc2CSC[C@@H](C(=O)N[C@@H](Cc2c[nH]c3ccccc23)C(=O)N[C@@H](CCC(=O)O)C(=O)N[C@H](CCCCN)C(N)=O)NC1=O` [compound 55] (HELM PEPTIDE1{[meR].S.D.T.L.C.W.E.[dK].[am]}|CHEM1{[O=C(c1ccccc1C[*:2])[*:1]]}$PEPTIDE1,CHEM1,1:R1-1:R1|PEPTIDE1,CHEM1,6:R3-1:R2$$$V2.0), the IC50 was 0.1 to 1 µM. Same read-out and setting: under `CC(=O)NCCCC[C@@H](NC(=O)[C@@H](CCC(=O)O)NC(=O)[C@H](Cc1c[nH]c2ccccc12)NC(=O)[C@H]1NC(=O)[C@H](CC(C)C)NC(=O)[C@H]([C@@H](C)O)NC(=O)[C@H](CC(=O)O)NC(=O)[C@H](CO)NC(=O)[C@H](CCCNC(=N)N)N(C)C(=O)c2ccccc2CSC1(C)C)C(N)=O` [compound 81] (HELM PEPTIDE1{[meR].S.D.T.L.[Pen].W.[dE].[dK].[am]}|PEPTIDE2{[ac]}|CHEM1{[O=C(c1ccccc1C[*:2])[*:1]]}$PEPTIDE1,PEPTIDE2,9:R3-1:R2|PEPTIDE1,CHEM1,1:R1-1:R1|PEPTIDE1,CHEM1,6:R3-1:R2$$$V2.0) stands 0.1 to 1 µM; under `CC(C)C[C@@H]1NC(=O)[C@H]([C@@H](C)O)NC(=O)[C@H](CC(=O)O)NC(=O)[C@H](CO)NC(=O)[C@H](CCCNC(=N)N)N(C)C(=O)c2ccccc2CSC(C)(C)[C@@H](C(=O)N[C@@H](Cc2ccc3ccccc3c2)C(=O)N[C@H](CCC(=O)O)C(N)=O)NC1=O` [compound 114] (HELM PEPTIDE1{[meR].S.D.T.L.[Pen].[O=C([C@H](Cc1ccc2ccccc2c1)N[*:1])[*:2]].[dE].[am]}|CHEM1{[O=C(c1ccccc1C[*:2])[*:1]]}$PEPTIDE1,CHEM1,1:R1-1:R1|PEPTIDE1,CHEM1,6:R3-1:R2$$$V2.0), 0.025 to 0.1 µM.

Staying with this test, now noted: thioether peptide dimers, Table 7; read-out: ELISA A4B1.
In the case of `CC(C)C[C@@H]1NC(=O)[C@H]([C@@H](C)O)NC(=O)[C@H](CC(=O)O)NC(=O)[C@H](CO)NC(=O)[C@H](CCCNC(=N)N)N(C)C(=O)C(C)SC[C@@H](C(=O)N[C@@H](Cc2c[nH]c3ccccc23)C(=O)N[C@H](CCCCN)C(N)=O)NC1=O` (single isomer, unassigned) [compound 144], the IC50 was over 1 µM.

As for `CC(C)C[C@@H]1NC(=O)[C@H]([C@@H](C)O)NC(=O)[C@H](CC(=O)O)NC(=O)[C@H](CO)NC(=O)[C@H](CCCNC(=N)N)N(C)C(=O)CSC[C@@H](C(=O)N[C@@H](Cc2c[nH]c3ccccc23)C(=O)N[C@H](CCCCNC(=O)COCC(=O)NCCCC[C@@H](NC(=O)[C@H](Cc2c[nH]c3ccccc23)NC(=O)[C@@H]2CSCC(=O)N(C)[C@@H](CCCNC(=N)N)C(=O)N[C@@H](CO)C(=O)N[C@@H](CC(=O)O)C(=O)N[C@@H]([C@@H](C)O)C(=O)N[C@@H](CC(C)C)C(=O)N2)C(N)=O)C(N)=O)NC1=O` [compound 143], the IC50 is over 1 µM. Take `CC(C)C[C@@H]1NC(=O)[C@H]([C@@H](C)O)NC(=O)[C@H](CC(=O)O)NC(=O)[C@H](CO)NC(=O)[C@H](CCCNC(=N)N)N(C)C(=O)c2ccccc2CSCC[C@@H](C(=O)N[C@@H](Cc2c[nH]c3ccccc23)C(=O)N[C@@H](CCC(=O)O)C(=O)N[C@H](CCCCNC(=O)COCC(=O)NCCCC[C@@H](NC(=O)[C@H](CCC(=O)O)NC(=O)[C@H](Cc2c[nH]c3ccccc23)NC(=O)[C@@H]2CCSCc3ccccc3C(=O)N(C)[C@@H](CCCNC(=N)N)C(=O)N[C@@H](CO)C(=O)N[C@@H](CC(=O)O)C(=O)N[C@@H]([C@@H](C)O)C(=O)N[C@@H](CC(C)C)C(=O)N2)C(N)=O)C(N)=O)NC1=O` [compound 157] (I: [NMeR]SDTL[hCys]WE[dK]-NH2 / II: [NMeR]SDTL[hCys]WE[dK]-NH2; linker I:9-II:9 via Diglycolyl; linker I:N-I:6, II:N-II:6 via X1): the IC50 was in the range of 0.1 to 1 µM.

(Values after patent US20260217767A1, “NOVEL A4B7 THIOETHER PEPTIDE DIMER ANTAGONISTS” (Protagonist Therapeutics, Inc., priority 2014, published 2026).)
